Experimental data: patent US20250136619A1, “HETEROBIFUNCTIONAL COMPOUNDS AND THEIR USE IN TREATING DISEASE” (HALDA THERAPEUTICS OPCO, INC., priority 2021, published 2025)
pKd: −log10 of the molar value.

Experiments:
mTOR = mTOR (Homo sapiens (Human), UniProt P42345); test: KdELECT assay for binding affinity to mTOR
Procedure: (§1) Compounds were tested using a KdELECT assay. Kinase-tagged T7 phage strains were prepared in an E. coli host derived from the BL21 strain. E. coli were grown to log-phase and infected with T7 phage and incubated with shaking at 32° C. until lysis. The lysates were centrifuged and filtered to remove cell debris. The remaining kinases were produced in HEK-293 cells and subsequently tagged with DNA for qPCR detection. Streptavidin-coated magnetic beads were treated with biotinylated small molecule ligands for 30 minutes at room temperature to generate affinity resins for kinase assays. The liganded beads were blocked with excess biotin and washed with blocking buffer (SeaBlock (Pierce), 1% BSA, 0.05% Tween 20, 1 mM DTT) to remove unbound ligand and to reduce non-specific binding. Binding reactions were assembled by combining kinases, liganded affinity beads, and test compounds in 1×binding buffer (20% SeaBlock, 0.17×PBS, 0.05% Tween 20, 6 mM DTT). Test compounds were prepared as 111X stocks in 100% DMSO. Kd values were determined using an 11-point 3-fold compound dilution series with three DMSO control points. All compounds for Kd measurements are distributed by acoustic transfer (non-contact dispensing) in 100% DMSO. The compounds were then diluted directly into the assays such that the final concentration of DMSO was 0.9%. All reactions performed in polypropylene 384-well plate. Each was a final volume of 0.02 mL. The assay plates were incubated at room temperature with shaking for 1 hour and the affinity beads were washed with wash buffer (1×PBS, 0.05% Tween 20). The beads were then re-suspended in elution buffer (1×PBS, 0.05% Tween 20, 0.5 μM nonbiotinylated affinity ligand) and incubated at room temperature with shaking for 30 minutes. The kinase concentration in the eluates was measured by qPCR.

BTK = BTK (Homo sapiens (Human), UniProt Q06187); test: KdELECT assay for binding affinity to BTK
BTK, sequence (Q06187 whole entry): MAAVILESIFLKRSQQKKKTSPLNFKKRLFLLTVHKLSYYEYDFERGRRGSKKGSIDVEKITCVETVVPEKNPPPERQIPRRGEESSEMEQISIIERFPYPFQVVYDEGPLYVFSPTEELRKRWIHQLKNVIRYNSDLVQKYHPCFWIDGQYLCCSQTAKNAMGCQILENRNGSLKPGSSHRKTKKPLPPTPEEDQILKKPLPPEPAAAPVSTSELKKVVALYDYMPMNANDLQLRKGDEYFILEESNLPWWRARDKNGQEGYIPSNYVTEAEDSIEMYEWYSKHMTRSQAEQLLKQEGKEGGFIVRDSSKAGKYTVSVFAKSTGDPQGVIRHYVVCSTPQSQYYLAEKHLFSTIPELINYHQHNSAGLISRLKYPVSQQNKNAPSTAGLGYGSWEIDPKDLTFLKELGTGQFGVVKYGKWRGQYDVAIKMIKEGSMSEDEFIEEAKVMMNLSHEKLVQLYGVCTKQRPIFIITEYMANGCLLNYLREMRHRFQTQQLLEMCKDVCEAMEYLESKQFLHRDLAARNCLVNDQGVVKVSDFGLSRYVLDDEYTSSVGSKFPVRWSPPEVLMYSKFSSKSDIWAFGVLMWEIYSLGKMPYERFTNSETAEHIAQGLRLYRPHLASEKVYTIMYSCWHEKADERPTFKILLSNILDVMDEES
Procedure: as §1, with “1× binding” for “1×binding”

HeLa cells = test: Cellular growth inhibition assay (CellTiter-Glo), HeLa cells; format: cell-based; settings: Homo sapiens, 72 h; HeLa cells, three days of compound treatment, CellTiter-Glo 2.0; read-out: CTG HELA GI50
How it was run: (§2)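 HeLa or HEK293 cells in DMEM with 10% FBS exposed to titrated compound for three days at 37 °C, 5% CO2, 24 h after seeding. Viability by CellTiter-Glo 2.0 luminescence, normalized to DMSO Day 0 and Day 3 readings; four-parameter fit gives GI50.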

CDK9 = CDK9 (Homo sapiens (Human), UniProt P50750); test: KdELECT assay for binding affinity to CDK9
CDK9, sequence (P50750 whole entry): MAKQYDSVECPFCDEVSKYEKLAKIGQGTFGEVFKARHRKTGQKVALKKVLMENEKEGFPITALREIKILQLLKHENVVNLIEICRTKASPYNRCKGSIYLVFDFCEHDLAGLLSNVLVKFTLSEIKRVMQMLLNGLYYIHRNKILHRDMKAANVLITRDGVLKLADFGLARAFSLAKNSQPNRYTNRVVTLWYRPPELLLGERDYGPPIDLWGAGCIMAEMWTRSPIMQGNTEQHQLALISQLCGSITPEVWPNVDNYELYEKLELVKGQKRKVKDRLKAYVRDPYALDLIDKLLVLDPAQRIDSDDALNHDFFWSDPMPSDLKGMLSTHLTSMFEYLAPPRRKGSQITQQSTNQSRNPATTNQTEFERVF
Procedure: as §1, with “KdELECT.” for “KdELECT assay.”

HEK293 cells = test: Cellular growth inhibition assay (CellTiter-Glo), HEK293 cells; format: cell-based; settings: Homo sapiens, 72 h; HEK293 cells, three days of compound treatment, CellTiter-Glo 2.0; read-out: CTG HEK293 GI50
How it was run: as §2

| SMILES | pKd (mTOR) | pKd (BTK) | GI50 (HeLa cells) [µM] | pKd (CDK9) | GI50 (HEK293 cells) [µM] |
| --- | --- | --- | --- | --- | --- |
| C[C@@H]1COCCN1c1nc(N2CCOC[C@H]2C)c2ccc(-c3cccc(C(=O)NCCOCCOCCOCCOCCOCCOCCOCCOCCOc4ccc(C(=O)N[C@H]5C(C)(C)[C@H](Oc6ccc(C#N)c(Cl)c6)C5(C)C)cc4)c3)nc2n1 [Compound I-9, N-[2-[2-[2-[2-[2-[2-[2-[2-[2-[4-[[3-(3-chloro-4-cyano-phenoxy)-2,2,4,4-tetramethyl-cyclobutyl]carbamoyl]phenoxy]ethoxy]ethoxy]ethoxy]ethoxy]ethoxy]ethoxy]ethoxy]ethoxy]ethyl]-3-[2-[(3R)-3-methylmorpholin-4-yl]-4-(3-methylmorpholin-4-yl)pyrido[2,3-d]pyrimidin-7-yl]benzamide] | > 7.30 | – | – | – | – |
| C[C@@H]1COCCN1c1nc(N2CCOC[C@H]2C)c2ccc(-c3cccc(C(=O)NCCCCCCCCOc4ccc(C(=O)NC5C(C)(C)C(Oc6ccc(C#N)c(Cl)c6)C5(C)C)cc4)c3)nc2n1 (stereo partly drawn) [Compound I-8, 3-[2,4-bis[(3R)-3-methylmorpholin-4-yl]pyrido[2,3-d]pyrimidin-7-yl]-N-[8-[4-[[3-(3-chloro-4-cyano-phenoxy)-2,2,4,4-tetramethyl-cyclobutyl]carbamoyl]phenoxy]octyl]benzamide] | < 5.60 | 6.30 to 7.30 | – | – | – |
| C[C@@H]1COCCN1c1nc(N2CCOC[C@H]2C)c2ccc(-c3cccc(C(=O)NCCCCCCCC/C=C/C(=O)N4CCC[C@@H](n5nc(-c6ccc(Oc7ccccc7)cc6)c6c(N)ncnc65)C4)c3)nc2n1 [Compound I-7, N—[(E)-11-[(3R)-3-[4-amino-3-(4-phenoxyphenyl)pyrazolo[3,4-d]pyrimidin-1-yl]-1-piperidyl]-11-oxo-undec-9-enyl]-3-[2,4-bis[(3R)-3-methylmorpholin-4-yl]pyrido[2,3-d]pyrimidin-7-yl]benzamide] | 6.30 to 7.30 | 6.30 to 7.30 | – | – | – |
| Cc1c(NC(=O)c2ccc(C3CC3)cc2F)cc(F)cc1-c1ncnc(N)c1OCCN(C)C(=O)/C=C/CN(C)CCCN1CCN(CCCNS(=O)(=O)c2ccc(Nc3ncc(Br)c(Nc4cccc(F)c4C(N)=O)n3)cc2)CC1 [Compound I-79, 2-[[2-[4-[3-[4-[3-[[(E)-4-[2-[4-amino-6-[3-[(4-cyclopropyl-2-fluoro-benzoyl)amino]-5-fluoro-2-methyl-phenyl]pyrimidin-5-yl]oxyethyl-methyl-amino]-4-oxo-but-2-enyl]-methyl-amino]propyl]piperazin-1-yl]propylsulfamoyl]anilino]-5-bromo-pyrimidin-4-yl]amino]-6-fluoro-benzamide] | – | > 7.30 | 1.5 to 5 | 6.30 to 7.30 | > 5 |
| CCc1cnn2c(NCc3ccc(OCCOCCOCCOC4CCN(C/C=C/C(=O)N(C)CCOc5c(N)ncnc5-c5cc(F)cc(NC(=O)c6ccc(C7CC7)cc6F)c5C)CC4)nc3)cc(N3CCCC[C@H]3CCO)nc12 [Compound I-82, (S,E)-N-(3-(6-amino-5-(2-(4-(4-(2-(2-(2-((5-(((3-ethyl-5-(2-(2-hydroxyethyl)piperidin-1-yl)pyrazolo[1,5-a]pyrimidin-7-yl)amino)methyl)pyridin-2-yl)oxy)ethoxy)ethoxy)ethoxy)piperidin-1-yl)-N-methylbut-2-enamido)ethoxy)pyrimidin-4-yl)-5-fluoro-2-methylphenyl)-4-cyclopropyl-2-fluorobenzamide] | – | 6.30 to 7.30 | 0.5 to 1.5 | > 7.30 | 1.5 to 5 |
| C[C@@H]1COCCN1c1nc(N2CCOC[C@H]2C)c2ccc(-c3cccc(C(=O)NCCOCCOCCOCCOCCOc4ccc(C(=O)NC5C(C)(C)C(Oc6ccc(C#N)c(Cl)c6)C5(C)C)cc4)c3)nc2n1 (stereo partly shown) [Compound I-10] | 6.30 to 7.30 | – | – | – | – |
| C[C@@H]1COCCN1c1nc(N2CCOC[C@H]2C)c2ccc(-c3cccc(C(=O)NCCOCCOCCOCCOC/C=C/C(=O)N4CCC[C@@H](n5nc(-c6ccc(Oc7ccccc7)cc6)c6c(N)ncnc65)C4)c3)nc2n1 [Compound I-3, N-[2-[2-[2-[2-[(E)-4-[(3R)-3-[4-amino-3-(4-phenoxyphenyl)pyrazolo[3,4-d]pyrimidin-1-yl]-1-piperidyl]-4-oxo-but-2-enoxy]ethoxy]ethoxy]ethoxy]ethyl]-3-[2,4-bis[(3R)-3-methylmorpholin-4-yl]pyrido[2,3-d]pyrimidin-7-yl]benzamide] | 6.30 to 7.30 | 6.30 to 7.30 | – | – | – |
| Nc1nc2cc(-c3nn(CCCCC(=O)NCCCCCCCC/C=C/C(=O)N4CCC[C@@H](n5nc(-c6ccc(Oc7ccccc7)cc6)c6c(N)ncnc65)C4)c4ncnc(N)c34)ccc2o1 [Compound I-2, 5-[4-amino-3-(2-amino-1,3-benzoxazol-5-yl)pyrazolo[3,4-d]pyrimidin-1-yl]-N—[(E)-11-[(3R)-3-[4-amino-3-(4-phenoxyphenyl)pyrazolo[3,4-d]pyrimidin-1-yl]-1-piperidyl]-11-oxo-undec-9-enyl]pentanamide] | 5.60 to 6.30 | – | – | – | – |
| CCc1cnn2c(NCc3ccc(OCCOCCOCCOC4CCN(C/C=C/C(=O)N5CCC[C@@H](n6nc(-c7ccc(Oc8ccccc8)cc7)c7c(N)ncnc76)C5)CC4)nc3)cc(N3CCCC[C@H]3CCO)nc12 [Compound I-70, (E)-1-((R)-3-(4-amino-3-(4-phenoxyphenyl)-1H-pyrazolo[3,4-d]pyrimidin-1-yl)piperidin-1-yl)-4-(4-(2-(2-(2-((5-(((3-ethyl-5-((S)-2-(2-hydroxyethyl)piperidin-1-yl)pyrazolo[1,5-a]pyrimidin-7-yl)amino)methyl)pyridin-2-yl)oxy)ethoxy)ethoxy)ethoxy)piperidin-1-yl) but-2-en-1-one] | – | > 7.30 | < 0.5 | 6.30 to 7.30 | 0.5 to 1.5 |
| CN(C/C=C/C(=O)N1CCC[C@@H](n2nc(-c3ccc(Oc4ccccc4)cc3)c3c(N)ncnc32)C1)CCOCCOCCOCCOCCNS(=O)(=O)c1ccc(Nc2ncc(Br)c(Nc3cccc(F)c3C(N)=O)n2)cc1 [Compound I-64, 2-[[2-[4-[2-[2-[2-[2-[2-[[(E)-4-[(3R)-3-[4-amino-3-(4-phenoxyphenyl)pyrazolo[3,4-d]pyrimidin-1-yl]-1-piperidyl]-4-oxo-but-2-enyl]-methyl-amino]ethoxy]ethoxy]ethoxy]ethoxy]ethylsulfamoyl]anilino]-5-bromo-pyrimidin-4-yl]amino]-6-fluoro-benzamide] | – | > 7.30 | 1.5 to 5 | 5.60 to 6.30 | > 5 |
